EC50 and IC50 data for 32 compounds are collected here from patent US20100298300A1, “TRIAZOLOPYRAZINE COMPOUNDS USEFUL FOR THE TREATMENT OF DEGENERATIVE & INFLAMMATORY DISEASES” (priority 2006, published 2010).

Assay [1] relates to TNFα release by human PBMCs. The assay is described as follows: Cytokine release by LPS stimulated human PBMCs (TNFα ELISA). The class given is cell-based. As to conditions: PBMC, 24 h, Table 5, LPS 1 μg/mL. In general terms: ELISA stands for enzyme-linked immunosorbent assay.
Assay [2] has as its target T1, MAPKAPK5 (Homo sapiens, UniProt Q8IW41).
T1 sequence (Q8IW41 1-471 isoform Q8IW41-2): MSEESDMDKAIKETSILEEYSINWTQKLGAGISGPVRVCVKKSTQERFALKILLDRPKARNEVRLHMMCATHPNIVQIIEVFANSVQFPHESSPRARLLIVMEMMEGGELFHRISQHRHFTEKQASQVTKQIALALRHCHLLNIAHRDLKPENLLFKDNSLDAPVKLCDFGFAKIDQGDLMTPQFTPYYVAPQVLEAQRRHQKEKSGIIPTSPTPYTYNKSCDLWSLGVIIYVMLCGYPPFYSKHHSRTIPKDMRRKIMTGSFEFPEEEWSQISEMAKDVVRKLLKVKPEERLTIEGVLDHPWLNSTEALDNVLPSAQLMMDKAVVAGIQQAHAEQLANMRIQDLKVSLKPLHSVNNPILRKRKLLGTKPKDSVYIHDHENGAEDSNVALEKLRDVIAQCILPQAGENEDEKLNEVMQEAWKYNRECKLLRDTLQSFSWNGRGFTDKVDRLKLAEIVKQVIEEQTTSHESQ
Briefly: MAPKAP-K5 assay (FlashPlate kinase assay).

In assay [3] the test system is MMP1 expression by activated primary synovial fibroblasts. Briefly: 'MMP assay': MMP1 expression by complex trigger activated synovial fibroblasts (MMP1 ELISA). As to conditions: Homo sapiens, Fibroblast; Table 3; RASFs, complex trigger, 48 hrs, MMP1 ELISA. The class given is cell-based.

As a reminder, the EC50 is the concentration at which the effect is half-maximal. By IC50 is commonly meant the midpoint of a concentration-inhibition curve. For the compound `CC(C)N1CCN(c2ccc(Nc3ncc(-c4ccnc(CF)c4)n4ncnc34)cc2)CC1` [Compound 91], the EC50 in assay [1] and in assay [3] was above 1000 nM each time. The compound further returned an IC50 in assay [2] above 1000 nM.

`CC(C)N1CCN(c2ccc(Nc3ncc(-c4csc5ccccc45)n4ncnc34)cc2)CC1` [Compound 49]: the EC50 in assay [1] and in assay [3] was above 1000 nM each time. Also, the IC50 in assay [2] was above 1000 nM.

For `O=C1NCc2cc(-c3cnc(NC4CCOCC4)c4ncnn34)ccc21` [Compound 116], the EC50 in assay [1] and in assay [3] was above 1000 nM each time. In assay [2], this compound had a 50% inhibitory concentration (IC50) above 1000 nM.

Take `OCc1cc(Nc2ncc(-c3cn[nH]c3)n3ncnc23)ccc1N1CCOCC1` [Compound 37, {5-[5-(1H-Pyrazol-4-yl)-[1,2,4]triazolo[1,5-a]pyrazin-8-ylamino]-2-morpholinophenyl}methanol]: the EC50 was above 1000 nM in assay [1] and 501 to 1000 nM in assay [3]. In assay [2], this compound displayed an IC50 above 1000 nM.

For `CC(C)N1CCN(c2ccc(Nc3ncc(-c4ccc5c(c4)CNC5=O)n4ncnc34)cc2Cl)CC1` [Compound 180], the 50% effective concentration (EC50) in assay [1] and in assay [3] was above 1000 nM throughout. Moreover, the IC50 in assay [2] was in the range of 1 to 100 nM.

As to `CC(C)N1CCC(c2ccc(Nc3ncc(-c4cn[nH]c4)n4ncnc34)cc2)CC1` [Compound 84, [4-(1-Isopropylpiperidin-4-yl)phenyl]-[5-(1H-pyrazol-4-yl)-[1,2,4]triazolo[1,5-a]pyrazin-8-yl]amine], the EC50 in assay [1] and in assay [3] was above 1000 nM in each case. Besides, the IC50 in assay [2] was in the range of 501 to 1000 nM.

For `CC(C)N1CCN(c2ccc(Nc3ncc(-c4ccc5c(c4)CNC5=O)n4ncnc34)cn2)CC1` [Compound 79, 5-(8-(6-(4-Isopropylpiperazin-1-yl)pyridin-3-ylamino)-[1,2,4]triazolo[1,5-a]pyrazin-5-yl)isoindolin-1-one], the EC50 in assay [1] was above 1000 nM; in assay [3], 501 to 1000 nM. In assay [2], this compound showed an IC50 of 1 to 100 nM.

Turning to `c1nc2c(Nc3ccc(N4CCNCC4)cc3)ncc(-c3cn[nH]c3)n2n1` [Compound 40], the values for the EC50 in assay [1] and in assay [3] were 501 to 1000 nM and above 1000 nM, respectively. The compound also yielded an IC50 in assay [2] of 501 to 1000 nM.

Turning to `NC(=O)c1c(F)cc(-c2cnc(Nc3ccc(N4CCOCC4)cc3)c3ncnn23)cc1F` [Compound 14], the EC50 in assay [1] and in assay [3] was above 1000 nM in each case. In assay [2], this compound displayed an IC50 above 1000 nM.

`CN1CCN(c2ccc(Nc3ncc(-c4ccc(C(N)=O)cc4F)n4ncnc34)cc2)CC1` [Compound 8]: the EC50 in assay [1] is above 1000 nM; in assay [3], 501 to 1000 nM. Besides, in assay [2], the concentration for half-maximal inhibition (IC50) is above 1000 nM.

For `NC(=O)c1cc(-c2cnc(Nc3ccc(C4CCN(CC(F)(F)F)CC4)cc3)c3ncnn23)cs1` [Compound 63, 4-(8-{4-[1-(2,2,2-Trifluoroethyl)piperidin-4-yl]phenylamino}-[1,2,4]triazolo[1,5-a]pyrazin-5-yl)thiophene-2-carboxylic acid amide], the EC50 is above 1000 nM in assay [1] and 101 to 500 nM in assay [3]. The same compound returned an IC50 in assay [2] above 1000 nM.

Consider `CC(C)N1CCN(c2ccc(Nc3ncc(-c4csc(C(N)=O)c4)n4ncnc34)cc2)CC1` [Compound 28, 4-(8-(4-(4-Isopropylpiperazin-1-yl)phenylamino)-[1,2,4]triazolo[1,5-a]pyrazin-5-yl)thiophene-2-carboxamide], for which the EC50 in assay [1] was above 1000 nM; in assay [3] it was 501 to 1000 nM. The compound further displayed an IC50 in assay [2] of 1 to 100 nM.

Consider `O=C1NCc2cc(-c3cnc(Nc4ccc(OCCN5CCOCC5)cc4)c4ncnn34)ccc21` [Compound 65, 5-(8-(4-(2-Morpholinoethoxy)phenylamino)-[1,2,4]triazolo[1,5-a]pyrazin-5-yl)isoindolin-1-one], for which the EC50 in assay [1] is above 1000 nM; in assay [3], 101 to 500 nM. Besides, the IC50 in assay [2] lay within 101 to 500 nM.

For `CC(C)N1CCN(c2ccc(Nc3ncc(-c4ccc5c(c4)CNC5=O)n4ncnc34)c(Cl)c2)CC1` [Compound 77], the EC50 in assay [1] and in assay [3] was above 1000 nM in each case. The IC50 in assay [2] was 101 to 500 nM.

As to `CNCc1cc(Nc2ncc(-c3cn[nH]c3)n3ncnc23)ccc1N1CCOCC1` [Compound 110], the EC50 in assay [1] and in assay [3] was above 1000 nM throughout. The compound also gave an IC50 in assay [2] above 1000 nM.

`CC(C)N1CCN(c2ccc(Nc3ncc(-c4ccnc(CO)c4)n4ncnc34)cn2)CC1` [Compound 90, (4-{8-[6-(4-Isopropylpiperazin-1-yl)pyridin-3-ylamino]-[1,2,4]triazolo[1,5-a]pyrazin-5-yl}pyridin-2-yl)methanol]: the EC50 in assay [1] and in assay [3] was above 1000 nM in each case. The compound further had an IC50 in assay [2] above 1000 nM.

For `FC(F)(F)c1cc(Nc2ncc(-c3cn[nH]c3)n3ncnc23)ccc1N1CCOCC1` [Compound 25], the concentration for a half-maximal effect (EC50) in assay [1] and in assay [3] was above 1000 nM in each case. The same compound showed an IC50 in assay [2] above 1000 nM.

In the case of `c1cc(-c2cnc(Nc3ccc(N4CCOCC4)cc3)c3ncnn23)[nH]n1` [Compound 23, (4-Morpholin-4-yl-phenyl)-[5-(2H-pyrazol-3-yl)-[1,2,4]triazolo[1,5-a]pyrazin-8-yl]-amine], the EC50 in assay [1] and in assay [3] was above 1000 nM each time. Also, in assay [2], the IC50 was above 1000 nM.

As to `O=C1NCCc2cc(-c3cnc(Nc4ccc(N5CCOCC5)cc4)c4ncnn34)ccc21` [Compound 35, 6-(8-(4-Morpholinophenylamino)-[1,2,4]triazolo[1,5-a]pyrazin-5-yl)-3,4-dihydroisoquinolin-1(2H)-one], the results for the EC50 in assay [1] and in assay [3] were above 1000 nM and 101 to 500 nM, respectively. Also, the IC50 in assay [2] was above 1000 nM.

Turning to `O=C1NCc2cc(-c3cnc(Nc4ccc(N5CCOCC5)cc4)c4ncnn34)sc21` [Compound 113], the figures for the half-maximal effective concentration (EC50) in assay [1] and in assay [3] were above 1000 nM and 101 to 500 nM, respectively. Also, the IC50 in assay [2] lay in the range of 501 to 1000 nM.

On to `O=C1CCc2cc(-c3cnc(Nc4ccc(N5CCOCC5)cc4)c4ncnn34)ccc2N1` [Compound 39], for which the EC50 in assay [1] and in assay [3] was above 1000 nM each time. The compound also gave an IC50 in assay [2] above 1000 nM.

For the compound `CC(C)N1CCC(c2ccc(Nc3ncc(-c4ccc5c(c4)CNC5=O)n4ncnc34)cc2)CC1` [Compound 92, 5-{8-[4-(1-Isopropylpiperidin-4-yl)phenylamino]-[1,2,4]triazolo[1,5-a]pyrazin-5-yl}-2,3-dihydroisoindol-1-one], the EC50 in assay [1] was above 1000 nM; in assay [3], 101 to 500 nM. In addition, the concentration for half-maximal inhibition (IC50) in assay [2] was in the range of 1 to 100 nM.

Take `NC(=O)c1cc(-c2cnc(Nc3ccc(N4CCOCC4)nc3)c3ncnn23)co1` [Compound 94]: the concentration giving a half-maximal response (EC50) in assay [1] and in assay [3] was above 1000 nM each time. Further, in assay [2], the IC50 fell in the range of 1 to 100 nM.

For the compound `Cc1[nH]ncc1-c1cnc(Nc2ccc(N3CCN(C)CC3)cc2)c2ncnn12` [Compound 16, 5-(5-Methyl-1H-pyrazol-4-yl)-N-(4-(4-methylpiperazin-1-yl)phenyl)-[1,2,4]triazolo[1,5-a]pyrazin-8-amine], the half-maximal effective concentration (EC50) in assay [1] and in assay [3] was above 1000 nM throughout. Further, the IC50 in assay [2] was above 1000 nM.

With `CC(C)N1CCN(c2ccc(Nc3ncc(-c4csc5c(C(N)=O)cccc45)n4ncnc34)cc2)CC1` [Compound 81, 3-{8-[4-(4-Isopropylpiperazin-1-yl)phenylamino]-[1,2,4]triazolo[1,5-a]pyrazin-5-yl}benzo[b]thiophene-7-carboxylic acid amide], the EC50 in assay [1] and in assay [3] was above 1000 nM each time. Moreover, the IC50 in assay [2] is above 1000 nM.

Turning to `CC(C)(C)N1CCN(c2ccc(Nc3ncc(-c4ccc5c(c4)CNC5=O)n4ncnc34)cc2)CC1` [Compound 102, 5-{8-[4-(4-tert-Butyl-piperazin-1-yl)-phenylamino]-[1,2,4]triazolo[1,5-a]pyrazin-5-yl}-2,3-dihydro-isoindol-1-one], the EC50 in assay [1] and in assay [3] was above 1000 nM in each case. Besides, in assay [2], the 50% inhibitory concentration (IC50) was in the range of 1 to 100 nM.

Regarding `CC(C)N1CCN(c2ccc(Nc3ncc(-c4cn[nH]c4)n4ncnc34)cc2)CC1` [Compound 38], the EC50 in assay [1] and in assay [3] was above 1000 nM throughout. The compound also had an IC50 in assay [2] of 501 to 1000 nM.

With `NC(=O)c1ccc(-c2cnc(Nc3ccc(N4CCOCC4)cc3)c3ncnn23)cc1` [Compound 5], the EC50 in assay [1] is above 1000 nM; in assay [3] it was 101 to 500 nM. In assay [2], this compound displayed an IC50 above 1000 nM.

On to `CNC(=O)c1nc(-c2cnc(Nc3ccc(N4CCN(C(C)C)CC4)cc3)c3ncnn23)cs1` [Compound 74], for which the 50% effective concentration (EC50) in assay [1] and in assay [3] was above 1000 nM each time. Besides, in assay [2], the IC50 is above 1000 nM.

As for `FC(F)(F)CN1CCC(c2ccc(Nc3ncc(-c4cn[nH]c4)n4ncnc34)cc2)CC1` [Compound 64], the EC50 in assay [1] and in assay [3] was above 1000 nM each time. For the same compound, in assay [2], the IC50 was above 1000 nM.

Regarding `NC(=O)c1cc(-c2cnc(Nc3ccc(N4CCNCC4)cc3)c3ncnn23)cs1` [Compound 27], the EC50 is above 1000 nM in assay [1] and 501 to 1000 nM in assay [3]. Moreover, the IC50 in assay [2] lay within 101 to 500 nM.

On to `Clc1cc(N2CCOCC2)ccc1Nc1ncc(-c2cn[nH]c2)n2ncnc12` [Compound 68], for which the EC50 in assay [1] and in assay [3] was above 1000 nM in each case. Moreover, the concentration for half-maximal inhibition (IC50) in assay [2] is above 1000 nM.
